The values that follow come from patent publication US20120027720A1, “PEPTIDE CONJUGATES” (priority 2008, published 2012).

In test [1] the test system is CaCo2 monolayers. Briefly: Epithelial flux of Lucifer Yellow through cell monolayer. Also noted: key to Enhanced LY permeability: + indicates an enhancement of the permeability of the tight junctions were observed; − indicates no enhancement of permeability was observed. It counts as cell-based. The note with it: Lucifer Yellow flux, Caco-2 monolayer. The text has this: (§1) Agonists of tight junctions can be identified by their ability to enhance the flux of compounds (e.g. ions, Lucifer Yellow) through a cell monolayer that comprises tight junctions; or by their ability to reduce TEER across a cell monolayer that comprises tight junctions. Treatment of CaCo2 monolayers with peptide FCIGRL (SEQ ID NO: 1) led to a 51-fold enhancement of Lucifer Yellow permeability through CaCo2 monolayers compared to vehicle alone. Treatment of CaCo2 monolayers with peptide FCIGRL led to a 16-fold decrease in TEER across CaCo2 monolayers compared to vehicle alone.
(§2) Determination of TEER and Lucifer Yellow Flux
(§3) Prepare Modified Hank's Balanced Salt Solution (MHBSS) by obtaining 1 L bottle of HBSS removing 10 ml of HBSS and replacing it with 10 ml HEPES buffer pH 7.0. Adjust pH to 7.4±0.1 using concentrated NaOH (10N).
(§4) Remove Caco-2 cells from incubator, grown on 12-well, […], polycarbonate Transwell® filters (Corning) and record passage#, date cells seeded and age in days.
(§5) Aspirate cell culture medium from both the apical (AP) and basolateral (BL) compartments, replacing with 0.5 ml and 1.5 ml of MHBSS, respectively. Incubate cells at 37° C. for 30 minutes.
(§6) Aspirate solution from the apical compartment of each filter (n=3 per condition) and replace with 0.5 ml of control and test solutions containing Lucifer Yellow and test compound if appropriate.
(§7) Place all plates into incubator set at 37° C. (±0.2), 50 RPM (±5) for a total of 180 minutes.
At t=60, 120 and 180 minutes remove 100 μl from each basolateral compartment and place it in a 96-well plate for Lucifer Yellow analysis, replace with 100 μl of MHBSS.
Make a Lucifer Yellow standard curve with the following dilutions (7500 μM, 3750 μM, 750 μM, 375 μM, 75 μM, 37.5 μM, 7.5 μM, 3.75 μM, 0.75 μM) and pipette […] of each into a 96-well plate except for the first three standards mentioned above which require a 1:10 dilutions prior to transferring to the 96-well plate.
Harvest the remaining start solutions and what is left in each apical compartment into 1.5 ml vials. Freeze at −20° C. for future analysis.
Analyze each 96-well plate in a Tecan Spectra Fluor Plus using Magellan at 485 and 535 nm.
(§8) Cells: Caco-2 cells passage 40-60 grown on Transwell® plates for 21-28 days
(§9) Culture Medium: DMEM supplemented with 10% fetal bovine serum, 1% NEAA, 1% Penn/Strep
(§10) Buffers: Hank's Balanced Salt Solution (HBSS) without calcium and magnesium
(§11) Flasks: 100×20 mm Tissue culture dish Falcon.
(§12) Plates: 12 well polycarbonate Transwell® filters; 0.3 uM pore size

Test [2] deals with CaCo2 monolayers. Briefly: Trans Epithelial Electric Resistance (TEER) across cell monolayer. It is filed as cell-based. Also noted: key to Reduced TEER: + indicates an enhancement of the permeability of the tight junctions were observed; − indicates no enhancement of permeability was observed. The following applies: Caco-2 monolayer.
Source text: as §1, §2, §3, §4, §5
Using the MilliCell®-ERS instrument (Millipore), measure and record the transepithelial electrical resistance (TEER) across each filter and record.
as §6, §7
At t=30, 60, 120 and 180 minutes, measure and record the transepithelial electrical resistance (TEER) across each filter using the MilliCell-ERS instrument.
as §8, §9, §10, §11, §12

Where no end group is shown, it is not given here. [ ]: non-standard residue; d: D form. Phe(4-NO2) = N[C@@H](Cc1ccc([N+](=O)[O-])cc1)C(=O)O; Tic = O=C(O)[C@@H]1Cc2ccccc2CN1; Cha = N[C@@H](CC1CCCCC1)C(=O)O; Cit = NC(=O)NCCC[C@H](N)C(=O)O; Tle = CC(C)(C)[C@H](N)C(=O)O; hSer = N[C@@H](CCO)C(=O)O; βAla = NCCC(=O)O

Regarding “1 (FCIGRL; not fully specified) [compound 1]”, the “Enhanced LY permeability” value in test [1] is given as “+”. Further, in test [2], the “Reduced TEER” value is given as “+”.
For “4 (FCAGRL; not fully specified; printed as Phe-Cys-Ala-Gly-Arg-Leu) [compound 4]”, in test [1], the “Enhanced LY permeability” value is on record as “−”. Moreover, the “Reduced TEER” value in test [2] is recorded as “−”.
Take “9 (IGRL; not fully specified; printed as Ile-Gly-Arg-Leu) [compound 9]”: the “Enhanced LY permeability” value in test [1] was “−”. Further, the “Reduced TEER” value in test [2] is “−”.
For “12 ([dF]CIGRL; also: peptide conjugate) [compound 12]”, in test [1], the “Enhanced LY permeability” value is recorded as “+”. In addition, the “Reduced TEER” value in test [2] is “+”.
As to “20 ([dL][dR]GI[dC][dF]; not fully specified; printed as D-Leu-D-Arg-Gly-Ile-D-Cys-D-Phe) [compound 20]”, the “Enhanced LY permeability” value in test [1] is “+”. Also, the “Reduced TEER” value in test [2] is on record as “+”.
As for “21 ([dL]RG[dI][dC][dF]; not fully specified) [compound 21]”, in test [1], the “Enhanced LY permeability” value is recorded as “−”. Moreover, in test [2], the “Reduced TEER” value is reported as “−”.
Consider “26 (LRG[dI]CF; not fully specified; printed as Leu-Arg-Gly-D-Ile-Cys-Phe) [compound 26]”, for which, in test [1], the “Enhanced LY permeability” value is given as “+”. For the same substance, the “Reduced TEER” value in test [2] is “+”.
As for “27 (LRGI[dC]F; not fully specified; printed as Leu-Arg-Gly-Ile-D-Cys-Phe) [compound 27]”, the “Enhanced LY permeability” value in test [1] is recorded as “−”. In addition, the “Reduced TEER” value in test [2] is listed as “−”.
Consider “28 (LRGIC[dF]; not fully specified; printed as Leu-Arg-Gly-Ile-Cys-D-Phe) [compound 28]”, for which the “Enhanced LY permeability” value in test [1] is reported as “−”. The “Reduced TEER” value in test [2] was “−”.
“30 ([dF][dC][dI]G[dR]L; not fully specified) [compound 30]”: the “Enhanced LY permeability” value in test [1] is listed as “+”. In test [2], the “Reduced TEER” value is recorded as “+”.
Regarding “31 ([dF][dC][dI]GR[dL]; not fully specified) [compound 31]”, the “Enhanced LY permeability” value in test [1] is “−”. In addition, in test [2], the “Reduced TEER” value is recorded as “−”.
On to “34 (F[dC][dI]G[dR][dL]; not fully specified) [compound 34]”, for which the “Enhanced LY permeability” value in test [1] is given as “−”. Moreover, the “Reduced TEER” value in test [2] is “−”.
Consider “35 (F[dC]IG[dR]L; not fully specified; printed as Phe-D-Cys-Ile-Gly-D-Arg-Leu) [compound 35]”, for which, in test [1], the “Enhanced LY permeability” value is recorded as “+”. In addition, in test [2], the “Reduced TEER” value is “+”.
For the substance “36 ([dL]RGICF; not fully specified; printed as D-Leu-Arg-Gly-Ile-Cys-Phe) [compound 36]”, in test [1], the “Enhanced LY permeability” value is listed as “−”. Besides, the “Reduced TEER” value in test [2] is recorded as “−”.
As to “37 ([dL][dR]GICF; not fully specified; printed as D-Leu-D-Arg-Gly-Ile-Cys-Phe) [compound 37]”, in test [1], the “Enhanced LY permeability” value is on record as “−”. In test [2], the “Reduced TEER” value is recorded as “−”.
Regarding “38 ([dL][dR]GIC[dF]; not fully specified) [compound 38]”, the “Enhanced LY permeability” value in test [1] is on record as “−”. Further, the “Reduced TEER” value in test [2] was “−”.
As for “39 ([dL][dR]GI[dC]F; not fully specified) [compound 39]”, the “Enhanced LY permeability” value in test [1] is given as “−”. Besides, the “Reduced TEER” value in test [2] is listed as “−”.
Turning to “51 (H-[dA]CIGRG-OH; not fully specified) [compound 51]”, the “Enhanced LY permeability” value in test [1] is reported as “+”. Also, the “Reduced TEER” value in test [2] was “+”.
For the substance “63 (H-FCIGRF-OH; not fully specified) [compound 63]”, in test [1], the “Enhanced LY permeability” value was “+”. The “Reduced TEER” value in test [2] is listed as “+”.
For the substance “69 (H-FCIGRLC-OH; not fully specified; cysteine pairing not given here) [compound 69]”, the “Reduced TEER” value in test [2] is listed as “−”.
Take “74 (YCIGRL; not fully specified; printed as Tyr-Cys-Ile-Gly-Arg-Leu) [compound 74]”: the “Enhanced LY permeability” value in test [1] is recorded as “+”. Besides, in test [2], the “Reduced TEER” value is given as “+”.
Consider “75 (Ac-ACIGRL; not fully specified; printed as Ac-Ala-Cys-Ile-Gly-Arg-Leu) [compound 75]”, for which the “Enhanced LY permeability” value in test [1] was “+”. For the same substance, the “Reduced TEER” value in test [2] was “+”.
With “76 (WCIGRL; not fully specified; printed as Trp-Cys-Ile-Gly-Arg-Leu) [compound 76]”, in test [1], the “Enhanced LY permeability” value is reported as “+”. Moreover, the “Reduced TEER” value in test [2] is recorded as “+”.
On to “77 (Ac-ACIGRS; not fully specified; printed as Ac-Ala-Cys-Ile-Gly-Arg-Ser) [compound 77]”, for which the “Reduced TEER” value in test [2] is “−”.
Take “78 (Ac-ACIGRA; not fully specified; printed as Ac-Ala-Cys-Ile-Gly-Arg-Ala) [compound 78]”: in test [1], the “Enhanced LY permeability” value is “+”. The “Reduced TEER” value in test [2] is on record as “−”.
On to “80 (SLIGRL-NH2; not fully specified; printed as Ser-Leu-Ile-Gly-Arg-Leu-NH2) [compound 80]”, for which the “Enhanced LY permeability” value in test [1] is reported as “+”. Moreover, the “Reduced TEER” value in test [2] is “+”.
On to “83 (GFCIGRL; not fully specified; printed as Gly-Phe-Cys-Ile-Gly-Arg-Leu) [compound 83]”, for which the “Enhanced LY permeability” value in test [1] is “+”. Moreover, the “Reduced TEER” value in test [2] was “+”.
Turning to “87 (Ac-FLIGRL-NH2; not fully specified) [compound 87]”, the “Enhanced LY permeability” value in test [1] is “+”. Further, the “Reduced TEER” value in test [2] is reported as “+”.
In the case of “96 (H-FCIGR[βAla]-OH; SMILES CC[C@H](C)[C@H](NC(=O)[C@H](CS)NC(=O)[C@@H](N)Cc1ccccc1)C(=O)NCC(=O)N[C@@H](CCCNC(=N)N)C(=O)NCCC(=O)O) [compound 96]”, the “Enhanced LY permeability” value in test [1] is listed as “+”. Besides, in test [2], the “Reduced TEER” value is listed as “+”.
In the case of “97 (H-FCIGR[Tle]-OH; SMILES CC[C@H](C)[C@H](NC(=O)[C@H](CS)NC(=O)[C@@H](N)Cc1ccccc1)C(=O)NCC(=O)N[C@@H](CCCNC(=N)N)C(=O)N[C@H](C(=O)O)C(C)(C)C) [compound 97]”, in test [1], the “Enhanced LY permeability” value is “+”. In addition, the “Reduced TEER” value in test [2] is recorded as “+”.
For the substance “101 (H-FCIGR[Cha]-OH; SMILES CC[C@H](C)[C@H](NC(=O)[C@H](CS)NC(=O)[C@@H](N)Cc1ccccc1)C(=O)NCC(=O)N[C@@H](CCCNC(=N)N)C(=O)N[C@@H](CC1CCCCC1)C(=O)O) [compound 101]”, the “Enhanced LY permeability” value in test [1] is “+”. In test [2], the “Reduced TEER” value is “+”.
With 104 (FCIG[Cit]L) [compound 104], in test [2], the “Reduced TEER” value is on record as “−”.
On the same count and under the same terms, the value for 105 ([Phe(4-NO2)]CIGRL) [compound 105] was “−”; that for 109 ([Tic]CIGRL) [compound 109] was “−”.
As to “114 (FTIGRL; also: peptide conjugate) [compound 114]”, in test [1], the “Enhanced LY permeability” value was “+”. The “Reduced TEER” value in test [2] is recorded as “+”.
On to “115 (FSIGRL; also: peptide conjugate) [compound 115]”, for which, in test [1], the “Enhanced LY permeability” value is on record as “+”. Besides, the “Reduced TEER” value in test [2] is reported as “+”.
Regarding “141 (H-F[hSer]IGRL-OH; SMILES CC[C@H](C)[C@H](NC(=O)[C@H](CCO)NC(=O)[C@@H](N)Cc1ccccc1)C(=O)NCC(=O)N[C@@H](CCCNC(=N)N)C(=O)N[C@@H](CC(C)C)C(=O)O) [compound 141]”, the “Enhanced LY permeability” value in test [1] is “+”.
